Numbered stars: 1 amine (or outer) side, 2 acyl side, 3 side chain; on linkers, the order of the positions; unused ones are H or OH. Square brackets hold non-standard residues; d marks the D form. Peptide text beside a SMILES is read from it. * marks the point of attachment. Cinnamoyl(2-(1Z-pentenyl)) = CCC/C=C\c1ccccc1/C=C/C(=O)*; X1 = CN(/C(=C/c1ccc(O)cc1)C(=O)[*:2])[*:1]; aThr = C[C@H](O)[C@H](N)C(=O)O
Molecular target: BmAsnRS (Brugia malayi asparaginyl-tRNA synthetase) (Brugia malayi, UniProt P10723)
Sequence (P10723 whole entry): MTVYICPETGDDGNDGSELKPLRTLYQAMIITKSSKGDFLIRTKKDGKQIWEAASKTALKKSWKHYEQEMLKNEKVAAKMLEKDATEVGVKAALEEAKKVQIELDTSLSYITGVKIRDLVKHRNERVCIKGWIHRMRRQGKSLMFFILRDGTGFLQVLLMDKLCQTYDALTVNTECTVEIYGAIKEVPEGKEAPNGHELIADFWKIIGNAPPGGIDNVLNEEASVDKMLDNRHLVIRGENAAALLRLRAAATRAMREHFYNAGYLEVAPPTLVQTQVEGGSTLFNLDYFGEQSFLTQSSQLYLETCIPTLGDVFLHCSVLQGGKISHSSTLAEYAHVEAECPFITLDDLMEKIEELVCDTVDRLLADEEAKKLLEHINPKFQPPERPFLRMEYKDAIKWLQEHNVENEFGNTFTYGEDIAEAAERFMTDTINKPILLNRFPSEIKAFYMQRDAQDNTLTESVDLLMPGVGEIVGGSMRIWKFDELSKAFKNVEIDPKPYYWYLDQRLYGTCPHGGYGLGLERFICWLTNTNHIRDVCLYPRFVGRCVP
Test: nonradioactive pretransfer editing assay, malachite green phosphate detection
Type: biochemical

| Compound | IC50 |
| --- | --- |
| CCC/C=C\c1ccccc1/C=C/C(=O)N[C@H](C(=O)N(C)/C(=C/c1ccc(O)cc1)C(=O)N[C@@H](CC(C)C)C(=O)N[C@H](Cc1ccccc1)C(=O)N[C@H](C(=O)O)[C@H](C)O)[C@@H](C)O [compound 3, WS9326D] ({Cinnamoyl(2-(1Z-pentenyl))}-T[X1]L[dF][aThr]-OH) | ~50 µM |
| CCC/C=C\c1ccccc1/C=C/C(=O)N[C@@H](CO)C(=O)N(C)/C(=C/c1ccc(O)cc1)C(=O)N[C@@H](CC(C)C)C(=O)N[C@H](Cc1ccccc1)C(=O)N[C@H](C(=O)O)[C@H](C)O [compound 4, WS9326E] ({Cinnamoyl(2-(1Z-pentenyl))}-S[X1]L[dF][aThr]-OH) | ~75 µM |

Reference: paper PMC3460372 (Organic letters, 2012)
